We go through 15 molecules from ChEMBL document CHEMBL1157022, “Synthesis, cytotoxicity and DNA-binding of novel bisnaphthalimidopropyl derivatives in breast cancer MDA-MB-231 cells” (Eur J Med Chem, 2010).

A value given as a limit tells only on which side of the number the result lay.

Series [1] relates to MCF7. Briefly: Cytotoxicity against human MCF7 cells after 48 hrs. In kind it is functional, cell-based. The conditions noted are these: MCF7, 48 h.
Series [2] can be described thus: Cytotoxicity against human MCF10A cells after 24 hrs by MTT assay. In kind it is cell-based. To be noted: MCF-10A. (In general: Formazan colour is commonly taken as a measure of viable cells.)
For series [3], the system named is MDA-MB-231. Briefly: Cytotoxicity against human MDA-MB-231 cells after 24 hrs by MTT assay. Format: functional, cell-based. To be noted: MDA-MB-231, 24 h.
The test system of series [4] is Nucleic Acid. Kind of series: Binding affinity to calf thymus DNA assessed as temperature required to cause 50% of DNA denatured at 10 uM by thermal denaturation assay. To be noted: Bos taurus. Format: nucleic-acid assay.
Series [5] deals with Nucleic Acid. Briefly: Displacement of ethidium bromide from calf thymus DNA assessed as decrease of fluorescence of bound ethidium bromide by fluorometric assay. Format: nucleic-acid assay. The conditions noted are these: Bos taurus.
The subject of series [6] is MDA-MB-231. Kind of series: Cytotoxicity against human MDA-MB-231 cells after 48 hrs by MTT assay. In kind it is functional, cell-based. The conditions noted are these: MDA-MB-231, 48 h.
Series [7] in a line: Cytotoxicity against human MCF10A cells after 48 hrs by MTT assay. In kind it is cell-based. To be noted: MCF-10A.
Series [8] concerns MGBG polyamine transporter. Kind of series: Ratio of IC50 for MGBG polyamine transporter deficient CHO-MG cells to IC50 for CHO cells expressing MGBG polyamine transporter. In kind it is cell-based, Cricetulus griseus. To be noted: chinese hamster; read-out: Ratio IC50.
In series [9] the test system is CHO. Briefly: Cytotoxicity against CHO cells expressing MGBG polyamine transporter after 48 hrs by MTT assay. In kind it is ADME, cell-based. To be noted: Cricetulus griseus.
In series [10] the test system is CHO-MG. Briefly: Cytotoxicity against MGBG polyamine transporter deficient CHO-MG cells after 48 hrs by MTT assay. Format: ADME, cell-based. To be noted: Cricetulus griseus.
Series [11] concerns MDA-MB-231. Briefly: Drug uptake in human MDA-MB-231 cells at 10 uM after 6 hrs by fluorescence microscopic analysis. Format: ADME, cell-based. The conditions noted are these: mda-mb-231, 6 h.
The test system of series [12] is MDA-MB-231. Briefly: Drug uptake in human MDA-MB-231 cells at 10 uM after 0.5 hrs by fluorescence microscopic analysis. In kind it is ADME, cell-based. The conditions noted are these: mda-mb-231, 0.5 h.

The term IC50 denotes the concentration needed to halve the response being measured. A high value points to weaker potency. As for `O=C1c2cccc3cccc(c23)C(=O)N1CCCNCCCNCCCCNCCCNCCCN1C(=O)c2cccc3cccc(c23)C1=O`, in series [1], the half-inhibitory concentration (IC50) came to 1.38 µM.

What is called Tm is the temperature at which the thermal transition is half complete. `O=C1c2ccccc2C(=O)N1CCCNCCCCCCCCCCNCCCN1C(=O)c2ccccc2C1=O`: the IC50 in [2], in [3], in series [6] and in series [7] was > 40 µM in each case. The melting temperature (Tm) in [4] was 72 °C. In series [5], the C50 is > 10 µM.

Turning to `CN1CCN(c2ccc3[nH]c(-c4ccc5[nH]c(-c6ccc(O)cc6)nc5c4)nc3c2)CC1`, in series [4], the melting temperature (Tm) is 78.8 °C.

With `O=C1c2c(O)ccc(O)c2C(=O)c2c(NCCNCCO)ccc(NCCNCCO)c21`, in series [4], the Tm was 91 °C.

As for `CC(/C=N/NC(=N)N)=N\NC(=N)N` [MITOGUAZONE], the selectivity ratio in [8] was > 30.2. Further, the IC50 was 3.3 µM in [9] and > 100 µM in series [10].

With `COc1cccc2c1C(=O)c1c(O)c3c(c(O)c1C2=O)C[C@@](O)(C(=O)CO)C[C@@H]3O[C@H]1C[C@H](N)[C@H](O)[C@H](C)O1` [DOXORUBICIN], the IC50 was found to be 0.75 µM in series [2], 14.3 µM in [3], 3.61 µM in [6] and 0.18 µM in series [7]. In series [4], the midpoint of thermal melting (Tm) stood at 86.4 °C.

On to `O=C1c2cccc3cccc(c23)C(=O)N1CCCNCCCCCCCCCCNCCCN1C(=O)c2cccc3cccc(c23)C1=O` [BNIPDADEC], for which the IC50 in [2] turned out to be 2.77 µM; in series [3] it was 4.85 µM; in series [6] it was 3.32 µM; in series [7], 2.82 µM. In series [4], the midpoint of thermal melting (Tm) worked out at 84.4 °C. In addition, the C50 in series [5] is 1.8 µM.

With `O=C1c2cccc3cccc(c23)C(=O)N1CCCNCCCCCCCCCCCCNCCCN1C(=O)c2cccc3cccc(c23)C1=O`, the IC50 in [2] was 4.17 µM; in series [3] it was 5.11 µM; in series [6], 6.88 µM; in series [7], 6.83 µM. Besides, the Tm in [4] was determined as 81.2 °C. In series [5], the C50 was 3.4 µM.

On to `Br.O=C1c2cccc3cccc(c23)C(=O)N1CCCNCCCCNCCCNCCCN1C(=O)c2cccc3cccc(c23)C1=O` [BISNAPHTHALIMIDOPROPYL SPERMIDINE TRIHYDROBROMIDE], for which the IC50 in series [2] was found to be 4.19 µM; in series [3], 12.7 µM; in series [9], 76.5 µM; in series [6] it was 4.59 µM; in [1], 1.38 µM; in series [10], 74.6 µM. The same molecule yielded an IC50 in series [7] of 3.97 µM. In addition, the selectivity ratio in series [8] came out at 1. The midpoint of thermal melting (Tm) in series [4] stood at 91.5 °C. For the same molecule, the C50 in series [5] amounted to 1.4 µM. In addition, the Drug uptake result in series [11] was “Active”.

As for `Br.O=C1c2cccc3cccc(c23)C(=O)N1CCCNCCOCCOCCNCCCN1C(=O)c2cccc3cccc(c23)C1=O`, the IC50 in [2] worked out at 6.1 µM; in [3], 12.4 µM; in series [9] it was 76.1 µM; in series [6], 6.15 µM; in [10] it was 26.9 µM; in series [7], 2.27 µM. In addition, in series [8], the selectivity ratio amounted to 0.4. For the same molecule, the Tm in series [4] was 87.9 °C. The C50 in series [5] stood at 1.9 µM. Further, in series [11], the Drug uptake result is reported as “Active”.

As to `Br.O=C1c2cccc3cccc(c23)C(=O)N1CCCNCCCCCCCCNCCCN1C(=O)c2cccc3cccc(c23)C1=O`, the Drug uptake entry in series [12] is reported as “Active”. For the same molecule, the half-maximal inhibitory concentration (IC50) was 2.77 µM in [2]; 4.99 µM in [3]; 5.8 µM in series [9]; 2.68 µM in series [6]; 5.1 µM in series [10]; 0.87 µM in series [7]. In series [8], the selectivity ratio is 0.9. For the same molecule, in series [4], the melting temperature (Tm) amounted to 88.7 °C. Moreover, the C50 in series [5] turned out to be 1.7 µM.

Consider `O=C1c2cccc3cccc(c23)C(=O)N1CCCNCCCCNCCCN1C(=O)c2cccc3cccc(c23)C1=O`, for which the half-maximal inhibitory concentration (IC50) amounted to 8.1 µM in series [2], 7.86 µM in [3], 5.12 µM in series [6] and 5.67 µM in series [7]. For the same molecule, in [4], the Tm worked out at 89.2 °C. Moreover, in series [5], the C50 was determined as 1.5 µM.

As for `O=C1c2cccc3cccc(c23)C(=O)N1CCCNCCCCCCNCCCN1C(=O)c2cccc3cccc(c23)C1=O`, the IC50 turned out to be 0.84 µM in [2], 7.22 µM in [3], 4.54 µM in series [6] and 0.83 µM in series [7]. In series [4], the melting temperature (Tm) turned out to be 91.9 °C. Moreover, the C50 in series [5] stood at 1.5 µM.

As for `NCCCN1C(=O)c2cccc3cccc(c23)C1=O` [NAPHTHALIMIDOPROPYLAMINE], the IC50 in series [2], in series [3], in series [6] and in series [7] was > 40 µM each time. For the same molecule, in series [4], the Tm came out at 66.3 °C. Also, the C50 in series [5] is > 10 µM.

Take `O=C1c2cccc3cccc(c23)C(=O)N1CCCNC1CCCC(CC2CCCC(NCCCN3C(=O)c4cccc5cccc(c45)C3=O)C2)C1` (configuration not stated): the IC50 is 6.06 µM in series [2]; 6.84 µM in series [3]; 6.2 µM in series [9]; 6.06 µM in [6]; 6.3 µM in series [10]; 5.71 µM in [7]. Also, the selectivity ratio in [8] is 1. Moreover, the midpoint of thermal melting (Tm) in series [4] is 87.4 °C. In series [5], the C50 amounted to 3.8 µM.
